Reference: ChEMBL document CHEMBL5370655

Experiments:
[1] = Downregulation of EGFR phosphorylation in human H1975-TM cells at 1000 nM measured after 24 hrs by Western blot analysis; format: functional
[2] = Induction of cell cycle arrest in human H1975-TM cells assessed as accumulation at S phase at 250 nM measured after 24 hrs by RNase A/propidium iodide staining based flow cytometric analysis (reference value: 18.1 %); format: functional
[3] = Toxicity in BALB/c mouse xenografted with human H1975-TM cells assessed as appearance of lesions in spleen at 25 to 100 mg/kg, po measured after 25 days by hematoxylin-eosin staining based analysis; format: organism-based; details: in vivo, 600 h, dose 25-100 mg/kg, time 25 day
[4] = Induction of apoptosis in human H1975-TM cells assessed as apoptotic cells at 250 nM measured after 24 by Annexin V-FITC and propidium iodide staining based flow cytometric analysis (reference value: 7.08 %); format: functional; details: time 24 hrs
[5] = Toxicity in BALB/c mouse xenografted with human H1975-TM cells assessed as appearance of lesions in kidney at 25 to 100 mg/kg, po measured after 25 days by hematoxylin-eosin staining based analysis; format: organism-based; details: in vivo, 600 h, dose 25-100 mg/kg, time 25 day
[6] = Induction of cell cycle arrest in human H1975-TM cells assessed as accumulation at G2/M phase at 500 nM measured after 24 hrs by RNase A/propidium iodide staining based flow cytometric analysis (reference value: 17.6 %); format: functional
[7] = Induction of cell cycle arrest in human H1975-TM cells assessed as accumulation at G0/G1 phase at 500 nM measured after 24 hrs by RNase A/propidium iodide staining based flow cytometric analysis (reference value: 64.3 %); format: functional
[8] = biological target: Epidermal growth factor receptor (Homo sapiens, UniProt P00533, L858R/T790M); test: Inhibition of EGFR L858R/T790M double mutant (unknown origin) using polyE4Y1 as substrate incubated for 5 mins with compound followed by substrate addition measured after 60 mins in presence of ATP by ADP-Glo reagent based assay
[9] = Induction of cell cycle arrest in human H1975-TM cells assessed as accumulation at S phase at 500 nM measured after 24 hrs by RNase A/propidium iodide staining based flow cytometric analysis (reference value: 18.1 %); format: functional

Sequence of Epidermal growth factor receptor (P00533 25-1210 T790M/L858R limits assumed): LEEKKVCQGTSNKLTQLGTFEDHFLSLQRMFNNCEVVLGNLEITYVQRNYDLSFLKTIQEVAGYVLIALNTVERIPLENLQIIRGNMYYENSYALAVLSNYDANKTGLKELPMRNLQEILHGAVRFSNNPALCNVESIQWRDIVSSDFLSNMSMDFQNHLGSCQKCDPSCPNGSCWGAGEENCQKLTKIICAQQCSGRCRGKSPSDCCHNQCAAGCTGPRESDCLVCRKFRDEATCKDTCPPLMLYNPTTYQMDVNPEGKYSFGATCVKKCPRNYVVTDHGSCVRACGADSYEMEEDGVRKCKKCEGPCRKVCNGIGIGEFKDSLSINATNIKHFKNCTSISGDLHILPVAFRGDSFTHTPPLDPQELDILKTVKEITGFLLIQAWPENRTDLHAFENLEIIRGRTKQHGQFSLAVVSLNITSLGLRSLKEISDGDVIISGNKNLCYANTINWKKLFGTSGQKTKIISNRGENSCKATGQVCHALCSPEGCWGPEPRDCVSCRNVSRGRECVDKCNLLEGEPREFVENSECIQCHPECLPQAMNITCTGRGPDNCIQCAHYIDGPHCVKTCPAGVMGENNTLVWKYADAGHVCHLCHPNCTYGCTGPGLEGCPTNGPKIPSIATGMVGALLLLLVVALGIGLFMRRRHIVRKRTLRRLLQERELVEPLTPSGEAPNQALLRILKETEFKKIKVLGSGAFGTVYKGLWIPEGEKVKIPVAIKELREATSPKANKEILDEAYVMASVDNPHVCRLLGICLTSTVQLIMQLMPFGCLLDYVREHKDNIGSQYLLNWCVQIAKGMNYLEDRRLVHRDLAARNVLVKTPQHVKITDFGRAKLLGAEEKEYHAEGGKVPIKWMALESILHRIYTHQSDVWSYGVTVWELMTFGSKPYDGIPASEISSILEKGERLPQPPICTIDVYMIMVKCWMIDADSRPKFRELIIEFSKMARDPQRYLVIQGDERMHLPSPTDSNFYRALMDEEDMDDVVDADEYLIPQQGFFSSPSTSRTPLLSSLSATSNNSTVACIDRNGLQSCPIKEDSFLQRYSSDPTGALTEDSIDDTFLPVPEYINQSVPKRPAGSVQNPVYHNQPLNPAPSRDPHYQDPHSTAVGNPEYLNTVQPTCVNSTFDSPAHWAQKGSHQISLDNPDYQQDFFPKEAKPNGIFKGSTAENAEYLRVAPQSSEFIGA

In the case of `CCS(=O)(=O)N1CCC(c2nc(-c3ccc(F)cc3)c(-c3ccnc(Nc4ccc5c(ccn5CCN(C)C)c4)n3)s2)CC1`, the Activity [1] is reported as 100%, the Activity [2] is reported as 15.7% and the Activity [3] is reported as “Non-Toxic”. The Activity [4] was 19.88%, the Activity [5] was “Non-Toxic” and the Activity [6] was 13.4%. The Activity [7] was 76.3%, the IC50 [8] was 21 nM and the Activity [9] was 10.3%.
